# Data: patent US20080139558A1, “QUINOLONES USEFUL AS INDUCIBLE NITRIC OXIDE SYNTHASE INHIBITORS” (KALYPSYS, INC., priority 2006, published 2008)
# Molecular target: T1, human iNOS (Homo sapiens, UniProt P35228)
# T1 construct: expressed in transfected cells; host or cells: HEK293
# Experiment: DAN assay of nitric oxide production (hiNOS)
# Type: cell-based
# Settings: enzyme expressed in HEK293 cells transiently transfected with human iNOS
# From the text: The source of nitric oxide synthase (NOS) enzyme can be generated in several ways including induction of endogenous iNOS using cytokines and/or lipopolysaccharide (LPS) in various cell types known in the art. Alternatively, the gene encoding the enzyme can be cloned and the enzyme can be generated in cells via heterologous expression from a transient or stable expression plasmid with suitable features for protein expression as are known in the art. Enzymatic activity (nitric oxide production) is calcium independent for iNOS, while the constitutive NOS isoforms, nNOS and eNOS, become active with the addition of various cofactors added to cellular media or extract as are well known in the art. Enzymes specified in Table 1 were expressed in HEK293 cells transiently transfected with human iNOS.
# A major metabolic pathway for nitric oxide is to nitrate and nitrite, which are stable metabolites within tissue culture, tissue, plasma, and urine (S Moncada, A Higgs, N Eng J Med 329, 2002 (1993)).
# The level of nitrate or nitrite in the specimen can be quantified by any method known in the art which provides adequate sensitivity and reproducibility. A variety of protocols have also been described for detecting and quantifying nitrite and nitrate levels in biological fluids by ion chromatography (e.g., A Everett et al., J. Chromatogr. 706, 437 (1995); J M Monaghan et al., J. Chromatogr. 770, 143 (1997)), high-performance liquid chromatography (e.g., M Kelm et al., Cardiovasc. Res. 41, 765 (1999)), and capillary electrophoresis (MA Friedberg et al., J. Chromatogr. 781, 491 (1997)). For example, 2,3-diaminonaphthalene reacts with the nitrosonium cation that forms spontaneously from NO to form the fluorescent product 1H-naphthotriazole. Using 2,3-diaminonaphthalene (“DAN”), researchers have developed a rapid, quantitative fluorometric assay that can detect from 10 nM to 10 μM nitrite and is compatible with a multi-well microplate format. […] DAN reacts with nitrite ion and gives fluorescent naphthotriazole (MC Carré et al., Analusis 27, 835-838 (1999)). Table 1 provides the test results of various compounds of the subject invention using the DAN assay.
# A specimen can be processed prior to determination of nitrate or nitrite as required by the quantification method, or in order to improve the results, or for the convenience of the investigator. For example, processing can involve centrifuging, filtering, or homogenizing the sample. If the sample is whole blood, the blood can be centrifuged to remove cells and the nitrate or nitrite assay performed on the plasma or serum fraction. If the sample is tissue, the tissue can be dispersed or homogenized by any method known in the art prior to determination of nitrate or nitrite. It may be preferable to remove cells and other debris by centrifugation or another method and to determine the nitrate or nitrite level using only the fluid portion of the sample, or the extracellular fluid fraction of the sample. The sample can also be preserved for later determination, for example by freezing of urine or plasma samples. When appropriate, additives may be introduced into the specimen to preserve or improve its characteristics for use in the nitrate or nitrite assay.
# The “level” of nitrate, nitrite, or other NO-related product usually refers to the concentration (in moles per liter, micromoles per liter, or other suitable units) of nitrate or nitrite in the specimen, or in the fluid portion of the specimen. However, other units of measure can also be used to express the level of nitrate or nitrite. For example, an absolute amount (in micrograms, milligrams, nanomoles, moles, or other suitable units) can be used, particularly if the amount refers back to a constant amount (e.g., grams, kilograms, milliliters, liters, or other suitable units) of the specimens under consideration. A number of commercially available kits can be used. […]
# T1 sequence (P35228 whole entry): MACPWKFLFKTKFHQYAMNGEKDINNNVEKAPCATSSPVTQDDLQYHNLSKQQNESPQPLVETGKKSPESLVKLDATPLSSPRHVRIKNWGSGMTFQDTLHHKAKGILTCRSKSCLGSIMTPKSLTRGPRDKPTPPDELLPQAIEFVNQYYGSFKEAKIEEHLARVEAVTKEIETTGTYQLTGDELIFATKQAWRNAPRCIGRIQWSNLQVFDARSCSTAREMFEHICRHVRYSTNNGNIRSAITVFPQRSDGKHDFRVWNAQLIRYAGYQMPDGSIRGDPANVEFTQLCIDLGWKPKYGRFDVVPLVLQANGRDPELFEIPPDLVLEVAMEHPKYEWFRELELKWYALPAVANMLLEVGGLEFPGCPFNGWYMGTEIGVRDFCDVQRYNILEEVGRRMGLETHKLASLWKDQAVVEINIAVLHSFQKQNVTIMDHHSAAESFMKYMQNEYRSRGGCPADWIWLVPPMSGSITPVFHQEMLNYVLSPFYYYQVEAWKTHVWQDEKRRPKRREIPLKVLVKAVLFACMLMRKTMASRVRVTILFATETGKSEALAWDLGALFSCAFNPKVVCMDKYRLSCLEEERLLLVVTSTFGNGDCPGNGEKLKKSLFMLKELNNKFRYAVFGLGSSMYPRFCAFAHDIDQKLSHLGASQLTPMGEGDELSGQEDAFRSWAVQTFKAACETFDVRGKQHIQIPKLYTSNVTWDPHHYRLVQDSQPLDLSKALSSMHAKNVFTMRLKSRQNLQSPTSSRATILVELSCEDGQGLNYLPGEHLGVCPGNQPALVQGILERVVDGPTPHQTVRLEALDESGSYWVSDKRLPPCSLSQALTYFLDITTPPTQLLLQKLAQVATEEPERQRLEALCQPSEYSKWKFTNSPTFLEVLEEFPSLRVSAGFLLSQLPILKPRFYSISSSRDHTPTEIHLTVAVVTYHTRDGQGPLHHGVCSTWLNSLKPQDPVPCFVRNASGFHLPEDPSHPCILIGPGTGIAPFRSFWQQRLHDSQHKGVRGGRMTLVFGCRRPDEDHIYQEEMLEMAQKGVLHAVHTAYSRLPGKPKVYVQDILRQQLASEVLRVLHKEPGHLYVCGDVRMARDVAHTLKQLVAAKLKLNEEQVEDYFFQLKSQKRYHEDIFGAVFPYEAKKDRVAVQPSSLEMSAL
row,EC50,Structure (SMILES)
1,≤ 5 µM,"Cc1ncsc1C(=O)N(c1cccc(Cl)c1)C(C)c1cc(=O)[nH]c2c(F)cccc12 (racemic) [Example 113, N-(3-Chlorophenyl)-N-(1-(8-fluoro-2-oxo-1,2-dihydroquinolin-4-yl)ethyl)-4-methylthiazole-5-carboxamide]"
2,≤ 5 µM,"CC1CCCCN1c1nc2ccccc2n1Cc1cc(=O)[nH]c2c(F)c(F)ccc12 (racemic) [Example 206, 7,8-Difluoro-4-((2-(2-methylpiperidin-1-yl)-1H-benzo[d]imidazol-1-yl)methyl)quinolin-2(1H)-one]"
3,≤ 5 µM,"CCC(C)Cc1nc2ccccc2n1Cc1cc(=O)[nH]c2c(F)c(F)ccc12 (racemic) [Example 220, 7,8-Difluoro-4-((2-(2-methylbutyl)-1H-benzo[d]imidazol-1-yl)methyl)quinolin-2(1H)-one]"
4,≤ 5 µM,"CC(Cc1nc2ccccc2n1Cc1cc(=O)[nH]c2c(F)c(F)ccc12)C(F)(F)F (racemic) [Example 222, 7,8-Difluoro-4-((2-(3,3,3-trifluoro-2-methylpropyl)-1H-benzo[d]imidazol-1-yl)methyl)quinolin-2(1H)-one]"
5,> 5 µM,"CC1CC1c1nc2ccccc2n1Cc1cc(=O)[nH]c2c(F)c(F)ccc12 (racemic) [Example 238, 7,8-Difluoro-4-((2-(2-methylcyclopropyl)-1H-benzo[d]imidazol-1-yl)methyl)quinolin-2(1H)-one]"
6,≤ 5 µM,"O=c1cc(Cn2c(C3CCCO3)nc3ccccc32)c2ccc(F)c(F)c2[nH]1 (racemic) [Example 250, 7,8-Difluoro-4-((2-(tetrahydrofuran-2-yl)-1H-benzo[d]imidazol-1-yl)methyl)quinolin-2(1H)-one]"
7,≤ 5 µM,"CC=C(C)c1nc2ccccc2n1Cc1cc(=O)[nH]c2c(F)c(F)ccc12 (single isomer, unassigned) [Example 210, (E or Z)-4-((2-(But-2-en-2-yl)-1H-benzo[d]imidazol-1-yl)methyl)-7,8-difluoroquinolin-2(1H)-one]"
8,≤ 5 µM,"O=C(c1ccco1)N(Cc1cc(=O)[nH]c2ccccc12)c1ccccc1 [Example 1, N-((2-Oxo-1,2-dihydroquinolin-4-yl)methyl)-N-phenylfuran-2-carboxamide]"
9,> 5 µM,"O=C(c1ccco1)N(Cc1cc(=O)[nH]c2ccccc12)c1ccc(Cl)cc1 [Example 2, N-(4-Chlorophenyl)-N-((2-oxo-1,2-dihydroquinolin-4-yl)methyl)furan-2-carboxamide]"
10,> 5 µM,"CC(=O)N(Cc1cc(=O)[nH]c2ccccc12)c1ccccc1 [Example 3, N-[(2-Oxo-1,2-dihydroquinolin-4-yl)methyl]-N-phenylacetamide]"
11,> 5 µM,"CCC(=O)N(Cc1cc(=O)[nH]c2ccccc12)c1ccccc1 [Example 4, N-((2-Oxo-1,2-dihydroquinolin-4-yl)methyl)-N-phenylpropionamide]"
12,> 5 µM,"CC(C)C(=O)N(Cc1cc(=O)[nH]c2ccccc12)c1ccccc1 [Example 5, N-((2-Oxo-1,2-dihydroquinolin-4-yl)methyl)-N-phenylisobutyramide]"
13,> 5 µM,"O=C(c1ccccc1)N(Cc1cc(=O)[nH]c2ccccc12)c1ccccc1 [Example 6, N-[(2-Oxo-1,2-dihydroquinolin-4-yl)methyl]-N-phenylbenzamide]"
14,> 5 µM,"O=C(c1cccs1)N(Cc1cc(=O)[nH]c2ccccc12)c1ccccc1 [Example 7, N-[(2-Oxo-1,2-dihydroquinolin-4-yl)methyl]-N-phenylthiophene-2-carboxamide]"
15,≤ 5 µM,"CN(Cc1cc(=O)[nH]c2ccccc12)C(=O)c1ccco1 [Example 8, N-Methyl-N-[(2-oxo-1,2-dihydroquinolin-4-yl)methyl]-2-furamide]"
16,≤ 5 µM,"CC(C)N(Cc1cc(=O)[nH]c2ccccc12)C(=O)c1ccco1 [Example 9, N-Isopropyl-N-[(2-oxo-1,2-dihydroquinolin-4-yl)methyl]-2-furamide]"
17,≤ 5 µM,"COc1ccc(N(Cc2cc(=O)[nH]c3ccccc23)C(=O)c2ccco2)cc1 [Example 10, N-(4-Methoxyphenyl)-N-[(2-oxo-1,2-dihydroquinolin-4-yl)methyl]-2-furamide]"
